Our source for the IC50 values is patent publication US11352339B2 (MISSION THERAPEUTICS LIMITED, priority 2016, dated 2022).

The assay addresses USP30 (Homo sapiens (Human), UniProt Q70CQ3). Nature of the assay: USP30 Biochemical IC50 Assay. Particulars: fluorescence polarisation, TAMRA labelled peptide linked to ubiquitin; 30 min pre-incubation, read after 2 h; read-out: IC50 range. The essentials: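 Enzyme preincubated 30 min at room temperature with compound, then 50 nM TAMRA-labelled isopeptide-linked ubiquitin–peptide substrate added. Fluorescence polarisation (ex 540/em 590 nm) read at once and after 2 h at room temperature; duplicate reactions.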

pIC50: −log10 of the molar value.

Chain of USP30 (Q70CQ3 57-517): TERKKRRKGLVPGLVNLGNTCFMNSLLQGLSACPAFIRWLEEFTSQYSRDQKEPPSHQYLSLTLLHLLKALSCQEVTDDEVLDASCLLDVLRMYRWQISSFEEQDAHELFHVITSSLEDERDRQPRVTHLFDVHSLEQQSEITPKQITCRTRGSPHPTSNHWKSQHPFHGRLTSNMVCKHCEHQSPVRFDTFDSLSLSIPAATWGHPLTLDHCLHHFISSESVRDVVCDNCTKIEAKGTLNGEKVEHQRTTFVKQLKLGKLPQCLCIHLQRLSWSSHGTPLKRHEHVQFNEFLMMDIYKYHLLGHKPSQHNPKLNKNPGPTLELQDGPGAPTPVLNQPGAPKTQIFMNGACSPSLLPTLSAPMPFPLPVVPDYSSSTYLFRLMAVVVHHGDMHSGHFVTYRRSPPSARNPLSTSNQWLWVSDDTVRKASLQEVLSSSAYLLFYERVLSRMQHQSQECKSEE

With `Cc1ccc(F)c(-c2ccc3nc(C4CCN(C#N)C4)[nH]c3c2)c1` (stereo not drawn) [Example 76, 3-(6-(2-Fluoro-5-methylphenyl)-1H-benzo[d]imidazol-2-yl)pyrrolidine-1-carbonitrile], the pIC50 was above 7.00.

On to `CC[C@@H]1CN(C#N)C[C@H]1c1cc(-c2cccc(-c3ccccc3)c2)n[nH]1` (single isomer, unassigned) [Example 45, Trans-3-(3-([1,1′-biphenyl]-3-yl)-1H-pyrazol-5-yl)-4-ethylpyrrolidine-1-carbonitrile], for which the pIC50 was 6.00 to 7.00.

`Cn1nccc1-c1cccc(-c2nc(C3CCCN3C#N)no2)c1` (stereo not drawn) [Example 143, 2-(5-(3-(1-Methyl-1H-pyrazol-5-yl)phenyl)-1,2,4-oxadiazol-3-yl)pyrrolidine-1-carbonitrile]: the pIC50 is 5.00 to 6.00.

On to `N#Cc1ccc(-c2cc(-c3nc([C@@H]4CCCN4C#N)no3)ccn2)cc1` [Example 177, (S)-2-(5-(2-(4-Cyanophenyl)pyridin-4-yl)-1,2,4-oxadiazol-3-yl)pyrrolidine-1-carbonitrile], for which the pIC50 is 6.00 to 7.00.

Turning to `N#CN1CCCC1c1noc(-c2cccc(-c3cncnc3)c2)n1` (stereo not drawn) [Example 159, 2-(5-(3-(Pyrimidin-5-yl)phenyl)-1,2,4-oxadiazol-3-yl)pyrrolidine-1-carbonitrile], the pIC50 is 5.00 to 6.00.

For `N#CN1CCC(c2cc(-c3cccc(-c4ccc(Cl)cc4)c3)n[nH]2)C1` (stereo not drawn) [Example 29, 3-(3-(4′-Chloro-[1,1′-biphenyl]-3-yl)-1H-pyrazol-5-yl)pyrrolidine-1-carbonitrile], the pIC50 is 6.00 to 7.00.

For `N#Cc1cccc(C2CN(c3noc(C4CCN(C#N)C4)n3)C2)c1` (stereo not drawn) [Example 197, 3-(3-(3-(3-Cyanophenyl)azetidin-1-yl)-1,2,4-oxadiazol-5-yl)pyrrolidine-1-carbonitrile], the pIC50 was 6.00 to 7.00.

As to `CC(=O)Nc1ccc(-c2cc(C3CCN(C#N)C3)[nH]n2)cc1` (stereo not drawn) [Example 9, N-(4-(5-(1-Cyanopyrrolidin-3-yl)-1H-pyrazol-3-yl)phenyl)acetamide], the pIC50 was 5.00 to 6.00.

On to `C[C@H]1CN(C#N)C[C@@H]1c1nc2cc(-c3ccccc3)ccc2[nH]1` (single isomer, unassigned) [Example 104, Trans-3-methyl-4-(5-phenyl-1H-benzo[d]imidazol-2-yl)pyrrolidine-1-carbonitrile], for which the pIC50 was 6.00 to 7.00.

In the case of `Cc1cccc2cc(-c3cccc(-c4nc(C5CCCN5C#N)no4)c3)[nH]c12` (stereo not drawn) [Example 165, 2-(5-(3-(7-Methyl-1H-indo1-2-yl)phenyl)-1,2,4-oxadiazol-3-yl)pyrrolidine-1-carbonitrile], the pIC50 was 6.00 to 7.00.

Turning to `COc1ccc(-c2cnc3[nH]c(C4CCN(C#N)C4)nc3c2)cn1` (stereo not drawn) [Example 86, 3-(6-(6-Methoxypyridin-3-yl)-3H-imidazo[4,5-b]pyridin-2-yl)pyrrolidine-1-carbonitrile], the pIC50 was 6.00 to 7.00.

On to `N#Cc1ccc(-c2cccc(-c3nc([C@@H]4CCCN4C#N)no3)c2)cc1` [Example 174, (S)-2-(5-(4′-Cyano-[1,1′-biphenyl]-3-yl)-1,2,4-oxadiazol-3-yl)pyrrolidine-1-carbonitrile], for which the pIC50 is above 7.00.
